Data as given in ChEMBL document CHEMBL4028888, “Design of MC1R Selective γ-MSH Analogues with Canonical Amino Acids Leads to Potency and Pigmentation” (J Med Chem, 2017).
The source made the active and inactive calls. The calls are words filed in the database; no cut-off is given here. Where a SMILES comes first, the peptide text is derived from it.

Legend:
Melanocortin receptor 4 [1] = target: T1, Melanocortin receptor 4 (Homo sapiens, UniProt P32245); assay: Displacement of [125I]-NDP-alpha-MSH from human MC4R expressed in HEK293 cells at 10 uM after 40 mins by gamma counting method; format: cell-based
T1 sequence (P32245 whole entry): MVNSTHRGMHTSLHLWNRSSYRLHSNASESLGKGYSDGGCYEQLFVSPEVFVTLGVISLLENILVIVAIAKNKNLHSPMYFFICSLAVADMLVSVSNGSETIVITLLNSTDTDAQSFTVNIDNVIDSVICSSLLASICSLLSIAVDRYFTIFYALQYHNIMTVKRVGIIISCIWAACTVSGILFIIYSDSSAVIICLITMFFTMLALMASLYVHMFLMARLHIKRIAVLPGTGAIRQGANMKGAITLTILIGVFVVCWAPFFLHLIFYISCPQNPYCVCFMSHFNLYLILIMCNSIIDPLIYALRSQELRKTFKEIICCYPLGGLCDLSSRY

Melanocortin receptor 5 [2] = target: T2, Melanocortin receptor 5 (Homo sapiens, UniProt P33032); assay: Agonist activity at human MC5R expressed in HEK293 cells assessed as induction of intracellular cAMP accumulation at 10 uM after 3 mins relative to MT-2; format: cell-based; settings: 0.05 h, read-out: %max
T2 sequence (P33032 whole entry): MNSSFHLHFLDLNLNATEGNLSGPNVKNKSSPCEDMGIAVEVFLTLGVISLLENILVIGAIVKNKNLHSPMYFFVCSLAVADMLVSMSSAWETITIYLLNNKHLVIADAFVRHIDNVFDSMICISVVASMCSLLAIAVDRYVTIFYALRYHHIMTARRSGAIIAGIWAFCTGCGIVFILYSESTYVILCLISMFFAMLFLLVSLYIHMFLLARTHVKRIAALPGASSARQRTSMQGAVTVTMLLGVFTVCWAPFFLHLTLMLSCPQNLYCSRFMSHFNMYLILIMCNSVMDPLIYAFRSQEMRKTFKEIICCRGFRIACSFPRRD

Melanocortin receptor 4 [3] = target: T1, Melanocortin receptor 4; assay: Agonist activity at human MC4R expressed in HEK293 cells assessed as induction of intracellular cAMP accumulation at 10 uM after 3 mins relative to MT-2; format: cell-based; settings: 0.05 h, read-out: %max
[4] = target: Melanocyte-stimulating hormone receptor (Homo sapiens) (UniProt Q01726); assay: Displacement of [125I]-NDP-alpha-MSH from human MC1R expressed in HEK293 cells at 10 uM after 40 mins by gamma counting method; format: cell-based
Sequence of Melanocyte-stimulating hormone receptor (Homo sapiens) (Q01726 whole entry, looked up): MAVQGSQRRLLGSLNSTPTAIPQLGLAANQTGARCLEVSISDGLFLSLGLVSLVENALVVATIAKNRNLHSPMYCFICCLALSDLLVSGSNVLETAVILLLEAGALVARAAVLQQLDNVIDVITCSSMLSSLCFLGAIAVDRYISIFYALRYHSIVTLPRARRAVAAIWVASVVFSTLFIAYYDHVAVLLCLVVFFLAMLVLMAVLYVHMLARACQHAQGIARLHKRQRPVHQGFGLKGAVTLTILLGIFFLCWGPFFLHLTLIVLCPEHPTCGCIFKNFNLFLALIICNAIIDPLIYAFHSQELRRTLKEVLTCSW

[5] = target: Melanocyte-stimulating hormone receptor (Homo sapiens) (UniProt Q01726); assay: Agonist activity at human MC1R expressed in HEK293 cells assessed as induction of intracellular cAMP accumulation at 10 uM measured after 3 mins relative to MT-2; format: functional, cell-based
Melanocortin receptor 5 [6] = target: T2, Melanocortin receptor 5; assay: Displacement of [125I]-NDP-alpha-MSH from human MC5R expressed in HEK293 cells at 10 uM after 40 mins by gamma counting method; format: cell-based
Anolis carolinensis [7] = assay: Induction of pigmentation effect in lizard at 2 ug/g, ip at 1 min post dose; format: functional, organism-based
Anolis carolinensis [8] = assay: Induction of pigmentation effect in lizard at 2 ug/g, ip at 24 hrs post dose; format: functional, organism-based
Melanocortin receptor 3 [9] = target: T3, Melanocortin receptor 3 (Homo sapiens, UniProt P41968); assay: Agonist activity at human MC3R expressed in HEK293 cells assessed as induction of intracellular cAMP accumulation at 10 uM after 3 mins relative to MT-2; format: cell-based; settings: 0.05 h, read-out: %max
T3 sequence (P41968 whole entry): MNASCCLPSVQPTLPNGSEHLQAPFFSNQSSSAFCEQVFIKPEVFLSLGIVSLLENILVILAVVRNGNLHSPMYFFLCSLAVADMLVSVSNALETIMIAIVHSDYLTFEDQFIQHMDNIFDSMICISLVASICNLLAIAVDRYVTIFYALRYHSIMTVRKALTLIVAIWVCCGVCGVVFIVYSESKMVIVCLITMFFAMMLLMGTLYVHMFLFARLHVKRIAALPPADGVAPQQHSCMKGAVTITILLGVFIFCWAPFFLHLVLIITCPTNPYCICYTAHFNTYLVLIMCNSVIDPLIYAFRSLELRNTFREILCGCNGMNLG

[10] = target: Melanocyte-stimulating hormone receptor (Homo sapiens) (UniProt Q01726); assay: Displacement of [125I]-NDP-alpha-MSH from human MC1R expressed in HEK293 cells after 40 mins by gamma counting method; format: cell-based
Melanocortin receptor 3 [11] = target: T3, Melanocortin receptor 3; assay: Displacement of [125I]-NDP-alpha-MSH from human MC3R expressed in HEK293 cells at 10 uM after 40 mins by gamma counting method; format: cell-based
Melanocortin receptor 5 [12] = target: T2, Melanocortin receptor 5; assay: Agonist activity at human MC5R expressed in HEK293 cells assessed as induction of intracellular cAMP accumulation after 3 mins; format: cell-based; settings: hek293, 0.05 h

Compound	inhibition at 10 µM (Melanocortin receptor 4 [1])	Emax at 10 µM (Melanocortin receptor 5 [2])	inhibition [4]	inhibition at 10 µM (Melanocortin receptor 5 [6])	also measured
CC(C)C[C@H](NC(=O)[C@@H](NC(=O)[C@@H](N)Cc1ccc(O)cc1)C(C)C)C(=O)NCC(=O)N[C@@H](Cc1cnc[nH]1)C(=O)N[C@@H](Cc1ccccc1)C(=O)N[C@@H](CCCNC(=N)N)C(=O)N[C@@H](Cc1c[nH]c2ccccc12)C(=O)N[C@@H](CC(=O)O)C(=O)N[C@@H](CCCNC(=N)N)C(=O)N[C@@H](Cc1ccccc1)C(=O)NCC(N)=O	100%	0%	–	–	–
CSCC[C@H](NC(=O)[C@@H](NC(=O)[C@@H](N)Cc1ccc(O)cc1)C(C)C)C(=O)NCC(=O)N[C@@H](Cc1cnc[nH]1)C(=O)N[C@@H](Cc1ccccc1)C(=O)N[C@@H](CCCNC(=N)N)C(=O)N[C@@H](Cc1c[nH]c2ccccc12)C(=O)N[C@@H](CC(=O)O)C(=O)N[C@@H](CCCNC(=N)N)C(=O)N[C@@H](Cc1ccccc1)C(=O)NCC(N)=O	100%	–	–	–	Emax at 10 µM (Melanocortin receptor 4 [3]): 76%
CCCC[C@H](NC(=O)[C@@H](NC(=O)[C@H](Cc1ccc(O)cc1)NC(C)=O)C(C)C)C(=O)NCC(=O)N[C@@H](Cc1cnc[nH]1)C(=O)N[C@H](Cc1ccccc1)C(=O)N[C@@H](CCCNC(=N)N)C(=O)N[C@@H](Cc1c[nH]c2ccccc12)C(=O)N[C@@H](CC(=O)O)C(=O)N[C@@H](CCCNC(=N)N)C(=O)N[C@@H](Cc1ccccc1)C(=O)NCC(N)=O	100%	–	–	–	–
CSCC[C@H](NC(=O)[C@H](CO)NC(=O)[C@H](Cc1ccc(O)cc1)NC(=O)[C@H](CO)NC(C)=O)C(=O)N[C@@H](CCC(=O)O)CN[C@@H](Cc1cnc[nH]1)C(=O)N[C@@H](Cc1ccccc1)C(=O)N[C@@H](CCCNC(=N)N)C(=O)N[C@@H](Cc1c[nH]c2ccccc12)C(=O)NCC(=O)N[C@@H](CCCCN)C(=O)N1CCC[C@H]1C(=O)N[C@H](C(N)=O)C(C)C	–	–	100%	–	%max [5]: 100%
CC(C)C[C@H](NC(=O)[C@H](Cc1ccccc1)NC(=O)[C@H](Cc1cnc[nH]1)NC(=O)CNC(=O)[C@H](CC(C)C)NC(=O)[C@@H](NC(=O)[C@@H](N)Cc1ccc(O)cc1)C(C)C)C(=O)N[C@@H](Cc1ccccc1)C(=O)N[C@@H](CC(=O)O)C(=O)N[C@@H](CCCNC(=N)N)C(=O)N[C@@H](Cc1ccccc1)C(=O)NCC(N)=O (H-YVLGHFLFDRFG-NH2)	–	–	100%	0%	Activity (Anolis carolinensis [7]): Active; Activity (Anolis carolinensis [8]): inactive
CC(C)C[C@H](NC(=O)[C@H](Cc1ccccc1)NC(=O)[C@H](Cc1cnc[nH]1)NC(=O)CNC(=O)[C@H](CC(C)C)NC(=O)[C@@H](NC(=O)[C@@H](N)Cc1ccc(O)cc1)C(C)C)C(=O)N[C@@H](Cc1c[nH]c2ccccc12)C(=O)N[C@@H](CC(=O)O)C(=O)N[C@@H](CCCNC(=N)N)C(=O)N[C@@H](Cc1ccccc1)C(=O)NCC(N)=O (H-YVLGHFLWDRFG-NH2)	–	–	100%	0%	Emax at 10 µM (Melanocortin receptor 3 [9]): 0%
CC(C)C[C@H](NC(=O)[C@H](Cc1ccccc1)NC(=O)[C@@H]1CCCN1C(=O)CNC(=O)[C@H](CC(C)C)NC(=O)[C@@H](NC(=O)[C@@H](N)Cc1ccc(O)cc1)C(C)C)C(=O)N[C@@H](Cc1ccccc1)C(=O)N[C@@H](CC(=O)O)C(=O)N[C@@H](CCCNC(=N)N)C(=O)N[C@@H](Cc1ccccc1)C(=O)NCC(N)=O (H-YVLGPFLFDRFG-NH2)	–	0%	–	–	–
CC(C)C[C@H](NC(=O)[C@H](Cc1ccccc1)NC(=O)[C@@H]1CCCN1C(=O)CNC(=O)[C@H](CC(C)C)NC(=O)[C@@H](NC(=O)[C@@H](N)Cc1ccc(O)cc1)C(C)C)C(=O)N[C@@H](Cc1c[nH]c2ccccc12)C(=O)N[C@@H](CC(=O)O)C(=O)N[C@@H](CCCNC(=N)N)C(=O)N[C@@H](Cc1ccccc1)C(=O)NCC(N)=O (H-YVLGPFLWDRFG-NH2)	–	0%	–	32%	Emax at 10 µM (Melanocortin receptor 4 [3]): 0%
CC(C)C[C@H](NC(=O)[C@@H](NC(=O)[C@@H](N)Cc1ccc(O)cc1)C(C)C)C(=O)NCC(=O)N1CCC[C@H]1C(=O)N[C@@H](Cc1ccccc1)C(=O)N[C@@H](CCCNC(=N)N)C(=O)N[C@@H](Cc1ccccc1)C(=O)N[C@@H](CC(=O)O)C(=O)N[C@@H](CCCNC(=N)N)C(=O)N[C@@H](Cc1ccccc1)C(=O)NCC(N)=O (H-YVLGPFRFDRFG-NH2)	0%	0%	–	–	inhibition [10]: 0%; Emax at 10 µM (Melanocortin receptor 3 [9]): 0%
CC(C)C[C@H](NC(=O)[C@@H](NC(=O)[C@@H](N)Cc1ccc(O)cc1)C(C)C)C(=O)NCC(=O)N1CCC[C@H]1C(=O)N[C@@H](Cc1ccccc1)C(=O)N[C@@H](CCCNC(=N)N)C(=O)N[C@@H](Cc1c[nH]c2ccccc12)C(=O)N[C@@H](CC(=O)O)C(=O)N[C@@H](CCCNC(=N)N)C(=O)N[C@@H](Cc1ccccc1)C(=O)NCC(N)=O (H-YVLGPFRWDRFG-NH2)	–	–	–	–	inhibition at 10 µM (Melanocortin receptor 3 [11]): 100%
CCCC[C@H](NC(=O)[C@@H](NC(=O)[C@@H](N)Cc1ccc(O)cc1)C(C)C)C(=O)NCC(=O)N[C@@H](Cc1c[nH]cn1)C(=O)N[C@H](Cc1ccc2ccccc2c1)C(=O)N[C@@H](CCCN=C(N)N)C(=O)NC(Cc1c[nH]c2ccccc12)C(=O)N[C@@H](CC(=O)O)C(=O)N[C@@H](CCCN=C(N)N)C(=O)N[C@@H](Cc1ccccc1)C(=O)NCC(N)=O (stereo in doubt)	100%	6%	100%	100%	%max [5]: 70%; Emax at 10 µM (Melanocortin receptor 3 [9]): 6%; inhibition at 10 µM (Melanocortin receptor 3 [11]): 100%; Activity (Melanocortin receptor 5 [12]): 0%
